Test results as given in BindingDB's records for doi:10.1038/nchembio.65 (University of California San Francisco, 2008).

Test: Inhibition of yeast prion protein Sup35 infection of PSI yeast spheroplast cells

**Q.** For O=C1C(I)=CC(=C(c2ccccc2C(=O)O)C2C=C(I)C(=O)C(I)=C2)C=C1I [TERAIODOPHENOLPHATHALIN], which EC50 is on record?
**A.** 100 µM
